Results: patent publication US9598424B2 (Takeda Pharmaceutical Company Limited, priority 2014, dated 2017)

Key:
Full length human TBK1 = target: T1, Full length human TBK1 (Homo sapiens, UniProt Q9UHD2); test: Inhibition of TBK1 Enzyme (Caliper microfluidic assay); type: biochemical; conditions: 25 μM ATP, 60 min at RT, -log(IC50), IC50 molar; for IC50: read-out: TBK1 Inhibition (pIC50) (converted)
T1 construct: Full length human TBK1 with an N-terminal His-tag; His-tag (N); made in house; host or cells: Sf9 insect cells (baculovirus, pFastBac1)
T1 sequence (Q9UHD2 1-729): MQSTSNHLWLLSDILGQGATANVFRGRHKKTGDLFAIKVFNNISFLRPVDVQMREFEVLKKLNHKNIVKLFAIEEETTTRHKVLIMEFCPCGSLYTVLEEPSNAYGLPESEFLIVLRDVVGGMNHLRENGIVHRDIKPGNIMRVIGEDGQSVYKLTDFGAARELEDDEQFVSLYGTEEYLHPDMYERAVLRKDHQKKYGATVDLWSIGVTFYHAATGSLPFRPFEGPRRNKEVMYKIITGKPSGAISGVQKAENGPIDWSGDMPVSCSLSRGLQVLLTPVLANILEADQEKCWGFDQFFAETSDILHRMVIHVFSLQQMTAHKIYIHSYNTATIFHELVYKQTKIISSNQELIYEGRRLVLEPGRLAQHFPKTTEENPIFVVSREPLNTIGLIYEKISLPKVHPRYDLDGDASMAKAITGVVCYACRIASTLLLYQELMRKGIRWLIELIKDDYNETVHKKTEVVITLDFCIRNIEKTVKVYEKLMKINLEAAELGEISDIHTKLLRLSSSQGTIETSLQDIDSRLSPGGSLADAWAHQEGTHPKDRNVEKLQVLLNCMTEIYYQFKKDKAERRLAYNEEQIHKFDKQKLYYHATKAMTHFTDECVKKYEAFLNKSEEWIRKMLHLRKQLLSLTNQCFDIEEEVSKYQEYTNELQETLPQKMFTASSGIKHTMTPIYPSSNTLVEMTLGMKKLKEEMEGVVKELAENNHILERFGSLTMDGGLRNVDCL
Procedure, shortened: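 Enzyme: His-tagged full-length TBK1 expressed in Sf9. Reaction 60 min at RT in 20 mM Hepes pH 7.4, 10 mM MgCl2, 1 mM EDTA, 0.01% Brij-L23, 1 mM DTT, with 5FAM-peptide (added at 1 μM) and TBK1/ATP mix (added at 3 nM/25 μM), then EDTA-quenched. Conversion measured by microfluidic separation; 11-point 2.5-fold series fit to pIC50.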

TBK1 = target: T2, TBK1 (Homo sapiens, UniProt Q9UHD2); test: Inhibition of TBK1 in Cells (TLR3 driven ISRE β-lactamase reporter assay); type: cell-based; conditions: poly IC-LMW stimulation 16 hrs, -log(EC50), EC50 molar; for EC50: read-out: Inhibition of TBK1 in cells pEC50 (EC) (converted)
T2 construct: host or cells: RA1-ISRE beta-lactamase reporter cells
T2 sequence (Q9UHD2 1-729): T1 sequence (Q9UHD2 1-729)
Procedure, shortened: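 RA1-ISRE β-lactamase reporter cells (50,000/well) treated with 11-point 2.5-fold compound dilutions and stimulated with 0.15 mg/ml poly IC-LMW for 16 hrs. Reporter read by CCF4-AM FRET; EC50 from non-linear fit of percent inhibition, reported as pEC50 (molar).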

C57/BL6 mice = test: Inhibition of ConA Induced Hepatitis (plasma ALT); type: in vivo; conditions: Mus musculus; oral, 1 hr before ConA 15 mg/kg i.v.; plasma collected post 8-24 hrs; read-out: ED50 (amount reducing ConA induced increase in plasma ALT level by 50%)
Description: Orally administer compound into normal C57/BL6 mice at several doses. After 1 hr, inject i.v. with ConA 15 mg/kg, (N=5). Post 8-24 hrs, collect plasma and liver. Measure plasma ALT enzyme level. An ED50 is determined as the amount of test compound that reduces ConA induced increase in plasma ALT level by 50%.

Compound | IC50 (Full length human TBK1) [nM] | EC50 (TBK1) [nM] | melting point [°C] | TBK1 Inhibition (pIC50) (Full length human TBK1) | Inhibition of TBK1 in cells pEC50 (EC) (TBK1) | ED50 (C57/BL6 mice) [mg/kg]
Cn1nc(-c2ccc3nc(NC(=O)C4CC4)cn3c2)cc1C(=O)NCC(F)(F)F [Example 1, 3-(2-(cyclopropanecarboxamido)imidazo[1,2-a]pyridin-6-yl)-1-methyl-N-(2,2,2-trifluoroethyl)-1H-pyrazole-5-carboxamide] | 251 | 8320 | 251 to 255 | – | – | –
Cn1nc(-c2ccc3nc(NC(=O)C4CC4)cn3c2)cc1C(=O)NCC(F)F [Example 2, 3-(2-(cyclopropanecarboxamido)imidazo[1,2-a]pyridin-6-yl)-N-(2,2-difluoroethyl)-1-methyl-1H-pyrazole-5-carboxamide] | 316 | 8320 | 284 to 290 | – | – | –
CC(F)(F)CNC(=O)c1cc(-c2ccc3nc(NC(=O)C4CC4)cn3c2)cs1 [Example 3, 4-(2-(cyclopropanecarboxamido)imidazo[1,2-a]pyridin-6-yl)-N-(2,2-difluoropropyl)thiophene-2-carboxamide] | 5.01 | 166 | 117 to 119 | – | – | –
O=C(NCC(F)(F)F)c1nc(-c2ccc3nc(NC(=O)C4CC4)cn3c2)cs1 [Example 4, 4-(2-(cyclopropanecarboxamido)imidazo[1,2-a]pyridin-6-yl)-N-(2,2,2-trifluoroethyl)thiazole-2-carboxamide] | 5.01 | 617 | 279 to 282 | – | – | –
CC(=O)Nc1cn2cc(-c3csc(C(=O)NCC(F)(F)F)c3)ccc2n1 [Example 13, 4-(2-acetamidoimidazo[1,2-a]pyridin-6-yl)-N-(2,2,2-trifluoroethyl)thiophene-2-carboxamide] | 25.1 | 813 | 180 to 182 | – | – | –
COCC(=O)Nc1cn2cc(-c3csc(C(=O)NCC(F)(F)F)c3)ccc2n1 [Example 14, 4-(2-(2-methoxyacetamido)imidazo[1,2-a]pyridin-6-yl)-N-(2,2,2-trifluoroethyl)thiophene-2-carboxamide] | 39.8 | 1740 | 230 to 232 | – | – | –
COCCC(=O)Nc1cn2cc(-c3csc(C(=O)NCC(F)(F)F)c3)ccc2n1 [Example 15, 4-(2-(3-methoxypropanamido)imidazo[1,2-a]pyridin-6-yl)-N-(2,2,2-trifluoroethyl)thiophene-2-carboxamide] | 25.1 | 933 | 231 to 233 | – | – | –
(R)-4-(2-(cyclopropanecarboxamido)imidazo[1,2-a]pyrazin-6-yl)-N-(1,1,1-trifluoropropan-2-yl)thiazole-2-carboxamide [Example 7] | – | – | – | 8.1 | 6.41 | –

Now from value to compound, other results behind:

IC50 (Full length human TBK1) [nM] | EC50 (TBK1) [nM] | melting point [°C] | TBK1 Inhibition (pIC50) (Full length human TBK1) | Inhibition of TBK1 in cells pEC50 (EC) (TBK1) | Compound | ED50 (C57/BL6 mice) [mg/kg]
79.4 | 3310 | > 275 | – | – | Cc1c(-c2ccc3nc(NC(=O)C4CC4)cn3c2)n[nH]c1C(=O)NCC(F)(F)F [Example 25, 3-(2-(cyclopropanecarboxamido)imidazo[1,2-a]pyridin-6-yl)-4-methyl-N-(2,2,2-trifluoroethyl)-1H-pyrazole-5-carboxamide] | –
15.8 | 537 | – | – | – | O=C(NCC(F)F)c1nc(-c2ccc3nc(NC(=O)C4CC4)cn3c2)cs1 [Example 86, 4-(2-(cyclopropanecarboxamido)imidazo[1,2-a]pyridin-6-yl)-N-(2,2-difluoroethyl)thiazole-2-carboxamide] | 5
126 | 3720 | – | – | – | O=C(NC1COC1)c1nc(-c2ccc3nc(NC(=O)C4CC4)cn3c2)cs1 [Example 122, 4-(2-(cyclopropanecarboxamido)imidazo[1,2-a]pyridin-6-yl)-N-(oxetan-3-yl)thiazole-2-carboxamide] | –
100 | 2190 | – | – | – | CC1CCCN1C(=O)c1cc(-c2ccc3nc(NC(=O)C4CC4)cn3c2)n[nH]1 (centres unmarked) [Example 123, N-(6-(5-(2-methylpyrrolidine-1-carbonyl)-1H-pyrazol-3-yl)imidazo[1,2-a]pyridin-2-yl)cyclopropanecarboxamide] | –
251 | 2140 | – | – | – | O=C(Nc1cn2cc(-c3csc(C(=O)N4CC(CO)C4)n3)ccc2n1)C1CC1 [Example 124, N-(6-(2-(3-(hydroxymethyl)azetidine-1-carbonyl)thiazol-4-yl)imidazo[1,2-a]pyridin-2-yl)cyclopropanecarboxamide] | –
6.31 | 19.1 | – | – | – | N[C@@H]1CCCC(F)(F)[C@@H]1NC(=O)c1cc(-c2ccc3nc(NC(=O)C4CC4)cn3c2)cs1 [Example 125, N-((1R,6R)-6-amino-2,2-difluorocyclohexyl)-4-(2-(cyclopropanecarboxamido)imidazo[1,2-a]pyridin-6-yl)thiophene-2-carboxamide] | –
10 | 55 | – | – | – | N[C@H]1CCCC(F)(F)[C@@H]1NC(=O)c1cc(-c2ccc3nc(NC(=O)C4CC4)cn3c2)cs1 [Example 126, N-((1R,6S)-6-amino-2,2-difluorocyclohexyl)-4-(2-(cyclopropanecarboxamido)imidazo[1,2-a]pyridin-6-yl)thiophene-2-carboxamide] | –
5.01 | 209 | – | – | – | O=C(Nc1cn2cc(-n3ccc(C(=O)N(CCO)CC(F)(F)F)n3)ncc2n1)C1CC1 [Example 127, 1-(2-(cyclopropanecarboxamido)imidazo[1,2-a]pyrazin-6-yl)-N-(2-hydroxyethyl)-N-(2,2,2-trifluoroethyl)-1H-pyrazole-3-carboxamide] | –
